Measured values as given in US20100069297A1, “Selective Inhibition of TLR4 Signaling” (priority 2005, published 2010).

Experiments:
Format in all cases: cell-based, mouse
[1] = tested on: TLR4 signaling (IRF-1 protein); assay: LPS-induced upregulation of IRF-1 protein, SDS-PAGE/Western; details: 100 ng/ml LPS, 1.5 h
Protocol: (§1) FIG. 3. Effect of blocking peptides on activation of IRF-3 and IRF-1. […] Primary mouse macrophages were stimulated with 100 ng/ml of LPS. Seventeen μg of total protein was loaded per lane of the native gel. Other details are as described in the legend for FIG. 1.
(§2) SDS-PAGE and Western blot analysis were performed as described previously (Medvedev et al., 2001, J. Immunol. 167, 2257) with minor modifications. Antibodies for detection of activated MAPKs (pERK, pJNK and pP38) were purchased from Cell Signaling Technology (Beverly, Mass.). IRF-1 was detected using a rabbit polyclonal antibody from Santa-Cruz (Santa Cruz, Calif.). Antibody for detection of tyrosine-701 phosphorylated STAT1 was purchased from Zymed Laboratories (San Francisco, Calif.).
Importantly, MyD88 knockout macrophages are capable of inducing IRF-1 mRNA (Yamamoto et al., 2003, supra).

[2] = tested on: TLR4 signaling (LPS-induced phosphorylation of ERK, JNK, p38); assay: LPS-stimulated activation of MAPKs (pERK, pJNK, pP38), Western blot; details: for effect on LPS-induced activation (phosphorylation) of MAPKs (ERK, JNK): 40 μM, 1 h preincubation, LPS 10 ng/ml
Protocol: (§3) FIG. 2. Effect of blocking peptides on the LPS-stimulated activation of MAPKs and Tyr701 STAT-1. Ten μg of total protein was loaded per lane. A representative blot of three separate experiments is shown. Other details are given in the Materials and Methods section and legend for FIG. 1.
(§4) FIG. 4. Comparative effect of BPs on TLR2-vs. TLR4-mediated activation of MAPKs (A) and IL-1β mRNA expression (B). For Western blot analysis, 4.5 x10^6 primary macrophages were preincubated without or with 40 μM BP and stimulated for 30 min with LPS (10 ng/ml) or Pam3Cys (P3C; 150 ng/ml). The results shown are a representative blot of three separate experiments. Experimental details for FIG. 4B are the same as reported in the legend to FIG. 1A.
FIG. 5. Effect of mutated TRAM BB loop peptides on LPS-induced activation of ERK. Details of the experiment are as in legend for FIG. 4, except for the cells were preincubated with peptides only for 30 minutes.
as §2
Using antibodies specific for the phosphorylated (activated) forms of JNK, ERK, and p38, we next sought to examine the effect of BB-loop-containing inhibitory peptides on LPS-stimulated activation of MAPKs. LPS induces quick and transient activation of MAPKs in primary macrophages (FIG. 2A) that was not affected by the addition of CP. […] The TIRAP BP was the weakest BP; all MAPKs were activated in the presence of it, although to a lesser extent when compared to CP.

[3] = tested on: TLR4 signaling (LPS-induced IL-1β, MIP-1β, IFN-β, RANTES mRNA); assay: LPS-induced gene expression in primary murine macrophages, real-time PCR; details: for inhibitory effect on LPS-induced expression of IL-1β, MIP-1β, IFN-β and RANTES mRNA: 40 μM BP, 1 h preincubation, 10 ng/ml LPS, mRNA 1 h after LPS
Protocol: FIG. 1. Effect of blocking peptides on the cytokine induction by LPS. Thioglycollate-elicited primary murine macrophages were preincubated in the presence of 40 μMof BP for one hour before stimulation with 10 ng/ml of LPS. (A) Quantitative real-time PCR analysis of gene expression. (B) Secretion of IL-1β and IL-6. Concentration of the cytokines was measured after overnight incubation of the cells in the presence of LPS and the peptides. (C) Sensitivity of the LPS-stimulated expression of IFN-β and IL-1β mRNA to varying concentrations of TRAM and MyD88 BP. Total mRNA was isolated 1 hour after LPS stimulation (A and C). *p<0.05; **p<0.01.
FIG. 6. Effect of mutant TRAM BB loop peptides on LPS-induced activation of IL1-β and IFN-β mRNA. Details of the experiments are as described in the legend for FIG. 1, except for the cells were preincubated with peptides only for 30 minutes.
C3H/OuJ mice were purchased from the Jackson Laboratory (Bar Harbor, Me.). Thioglycollate-elicited peritoneal macrophages were harvested and cultured in the presence of E. coli K235 LPS or Pam3Cys as described previously (Salkowski et al., 1999, J. Immunol. 164, 1529).
(§5) Total cellular RNA was extracted from macrophage cultures as described elsewhere and reversed transcribed using AMV Reverse Transcriptase (Promega, Madison, Wis.) and poly-T priming as recommended by the manufacturer. The resulting cDNA was quantified by real time PCR using SYBR Green PCR Master Mix (Applied Biosystems) and ABI Prism 7900HT cycler. Primers for detection of IL-1β, IFN-β, MIP-1β, […]RANTES, and HPRT mRNAs were designed using the Primer Express 2.0 program (Applied Biosystems). Relative gene expression was calculated using ΔCt method with HPRT as a housekeeping gene (1.8̂(CtHPRT−CtGene)) Statistical analysis was performed by one way ANOVA with repeated measures, followed by Dunnett's multiple comparison post hoc test with p≦0.05 chosen as the level of significance.
Mice with targeted mutations in MyD88 (Kawai et al., 2001, supra; Toshchakov et al., 2002, supra) or TIRAP (Yamamoto et al., 2002, Nature 420, 324) retain the capacity to signal through the MyD88-independent pathway. […] Therefore, the first question we sought to address experimentally is whether interactions of the BB-loops of the TIR domains of these adapters affect protein interactions leading to gene expression. To this end, we designed cell permeable peptides whose sequences correspond to the BB-loops of each adapter molecule and measured the ability of each BP to interfere with the induction of immediate response genes induced via MyD88-dependent and independent pathways. […] All BB-loop-containing peptides exerted an inhibitory effect on LPS-induced expression of MyD88-dependent IL-1β and […], as well as MyD88-independent IFN-β and RANTES mRNA, as measured by real-time PCR (FIG. 1A).

[4] = tested on: TLR4 signaling (LPS-induced STAT-1 phosphorylation); assay: LPS-induced phosphorylation of STAT-1, Western blot; details: 40 μM BP
Protocol: as §3, §2

[5] = tested on: TLR4 signaling (IRF-3 dimerization); assay: LPS-induced dimerization of IRF-3, native PAGE; details: 100 ng/ml LPS, 1.5 hr
Protocol: as §1
Native PAGE for detection of IRF-3 activation was performed with minor modifications (Iwamura et al., 2001, Genes Cells 6, 375). One×10^7 thioglycollate-elicited cells were plated into a 6 cm dish and washed with PBS to remove non-adherent cells. Primary macrophages were stimulated with 100 ng/ml of LPS for 1.5 hr and lysed in buffer containing 50 mM TRIS-HCl pH 7.5, 150 mM NaCl, 1 mM EDTA, 1% NP-40, 1 mM sodium orthovanadate and 1× Complete protease inhibitor cocktail (Roche, Mannheim, Germany). Lysates were mixed with native lysis buffer (Bio-Rad, Hercules, Calif.) supplemented with 1% deoxycholate. Fifteen to 20 μg protein per lane was electrophoresed on a non-reducing gel and immunoblotted. IRF-3 dimers and monomers were detected using rabbit anti-IRF-3 antibody (Zymed Laboratories) by Western analysis.
Interferon Regulatory Factors (IRFs) were first identified as important transcriptional mediators of the antiviral immune response (reviewed in Taniguchi et al., 2001, Annu. Rev. Immunol. 19, 623). Later, it was recognized that this family of transcription factors plays an essential role in signal transduction mediated by different TLRs. IRF-1 is regulated transcriptionally by signaling from different TLRs, as well as by cytokines induced by TLR engagement (e.g., IL-1, TNF, and IFN-β) (Fujita et al., 1989, Proc. Natl. Acad. Sci. USA 86, 9936). In contrast, IRF-3 is constitutively expressed in many cell types (Au et al., 1995, Proc. Natl. Acad. Sci. USA 92, 11675). Upon stimulation through TLR4 or TLR3, IRF-3 is phosphorylated at multiple sites in its C-terminus, and this modification enables it to dimerize and translocate to the nucleus where it targets IRF-3-responsive genes (Kawai et al., 2001, supra; Lin et al., 1999, Mol. Cell. Biol. 19, 2465).

[6] = tested on: TLR2 signaling (Pam3Cys-induced IL-1β mRNA); assay: Pam3Cys-induced cytokine mRNA expression, real-time PCR; details: 40 μM, Pam3Cys
Protocol: as §4, §5
Similar to their effect on activation of MAPKs, BPs were much weaker inhibitors with respect to Pam3Cys- vs. LPS-induced expression of IL-1β mRNA.

Row | Sequence | effect on LPS-induced upregulation of IRF-1 protein [1] | effect on LPS-induced activation (phosphorylation) of MAPKs (ERK, JNK) [2] | inhibition of phosphorylation of ERK whether or not 100-fold excess LPS was used ([2]; peptide increased from 10 μM to 40 μM, LPS 10 ng/nl or 1 μg/ml) | inhibitory effect on LPS-induced expression of IL-1β, MIP-1β, IFN-β and RANTES mRNA [3] | inhibition of LPS-induced Tyr701 phosphorylation of STAT-1 [4] | inhibition of LPS-induced dimerization of IRF-3 [5] | IL-1β gene expression in Pam3Cys-stimulated cells, of control levels [6] | effect on Pam3Cys-induced expression of IL-1β mRNA [6] | IL-1β mRNA expression in LPS-stimulated cells, of the level detected in the presence of the CP ([3]; 40 μM, LPS 10 ng/ml) [%]
1 | RQIKIWFQNRRMKWKKIVFAEMPCGRLHLQ [TRAM-BP] | strongest inhibitors | strongly blocked | effectively inhibited | strongest | strongly inhibited | significantly inhibited |  |  | 
2 | RQIKIWFQNRRMKWKKLQLRDAAPGGAIVS (TIRAP blocking peptide) [TIRAP-BP] | weakest | weakest BP |  | consistently weakest | did not completely block | inhibition was not as complete |  |  | 
3 | RQIKIWFQNRRMKWKKVSDRDVLPGTCVWS (MyD88 blocking peptide) [MyD88-BP] | strongest inhibitors | strongly blocked |  | comparable or only slightly less inhibitory | highly effective | significantly inhibited | approximately 25% | statistically significant inhibitory effect | < 5
